Laboratory results as given in patent EP4310093A1, “AMINO ACID DERIVATIVE, PREPARATION METHOD THEREFOR, AND PHARMACEUTICAL COMPOSITION FOR TREATING HEPATITIS, COMPRISING SAME” (priority 2021, dated 2022).

What was measured:
HBV [1] = assay: Inhibition of intracellular HBV virus invasion, HBeAg ELISA analysis; format: cell-based; details: 20 µM, HepG2-NTCP cell line, HBV 3000 Geq/cell, O.D. at 450 nm
Protocol: (§1) In order to evaluate the ability to inhibit intracellular HBV virus entry (invasion), Enzyme-linked immunosorbent assay (ELISA) analysis to measure HBeAg, which is associated with high infectivity as an antigen in the HBV virus core portion, and Southern blot analysis to measure DNA of HBV were performed.
(§2) Specifically, the HepG2-NTCP cell line was cultured on a 6-well plate, incubation was performed overnight, HBV inhibitors were treated at a concentration of 20 µM, and the positive control Myrcludex-B (MyrB) was treated at a concentration of 200 nM, followed by culture for 24 hours. After HBV infection into the cells to make HBV 3000 genome equivalent per ml/cell (Geq/cell), the cell culture medium was replaced (medium changing, MC) a day after the viral infection to remove the virus unattached to cell membranes. In order to measure an amount of virus that entered the cell, medium changing (MC) was performed once more 4 days after viral infection. 2 days after replacement, HBeAg ELISA analysis was performed using a supernatant, and Southern blot analysis was performed with cell pellets.
HBeAg ELISA analysis was performed using an HBeAg ELISA kit (sanbio, Wantai HBeAg ELISA, cat#WB-2496) for the supernatant obtained by the method in Experimental Example 4-1.
First, a negative control group (Mock), positive control group (MyrB), and samples according to the present disclosure were loaded, by 50 µl each to be triplicate, onto a 96-well plate coated with capture Ab. In this case, Example 1 (LCA-ILE), Example 44 (LCA-Val), Example 52 (LCA-Tyr), Example 51 (LCA-Ser), Example 55 (LCA-Glu), Example 2 (UDCA-Ile), Example 3 (UDCA-Val), Example 25 (LCA-Val-Trp), Example 10 (DCA-Ile), Comparative Example 1 (LCA), and Comparative Example 2 (UDCA) were used as the sample.
The HRP-conjugated detection antibody was loaded into each well by 50 µl, followed by a reaction at 37°C for 30 minutes. Washing buffer (1X PBS, 0.5% Tween20) was added by 200 µl, and washing was performed 5 times. 50 µl of chromogen solution A and 50 µl of chromogen solution B were added to each well, and a reaction was carried out in the darkness at 37°C for 15 minutes. The stop solution was added to each well by 50 µl each to stop the reaction, and the amount of HBeAg was measured by measuring the absorbance (optical density, O.D.) level in the 450 nm wavelength band.

HBV [2] = assay: Inhibition of intracellular HBV virus invasion, Southern blot analysis; format: cell-based; details: for amount of HBeAg DNA detected compared to the negative control group (Mock): 20 µM, HepG2-NTCP cell line, HBV 3000 Geq/cell; for activity at 20 µM: Hepatitis B virus, read-out: relative replication rate of quantified HBeAg DNA to the negative control group (Mock), 20 µM, HepG2-NTCP cell line, HBV 3000 Geq/cell
Protocol: as §1, §2
For the cell pellet obtained by the method of Experimental Example 4-1, Southern blot analysis for measurement of […] DNA was performed using Example 1 (LCA-Ile), Example 44 (LCA-Val), Example 52 (LCA-Tyr), Example 51 (LCA-Ser), Example 55 (LCA-Glu), Example 2 (UDCA-Ile), Example 3 (UDCA-Val), Example 25 (LCA-Val-Trp), Example 10 (DCA-Ile), Comparative Example 1 (LCA), and Comparative Example 2 (UDCA).
First, the cell pellets were pipetted with 100 µl of HEPES lysis buffer (10 mM HEPES, 100 mM NaCl, 1 mM EDTA, 1% NP-40), placed on ice for 20 minutes, and then centrifuged with a centrifuge under the conditions at 4°C and 13000 rpm. After transferring the supernatant only to the new microtube, 4.5 µl of nuclease buffer I (10 mM CaCl2, 12 mM MgCl2, DNase 10 units) was added to carry out a reaction at 37°C for 2 hours, and 40 µl of 26% PEG solution was added, followed by a reaction on ice for 1 hour. After centrifuging with the centrifuge at 4°C and 13000 rpm for 30 minutes, and the supernatant was removed cleanly. After releasing the pellets with 100 µl of nuclease buffer II (10 mM Tris, 8 mM CaCl2, 6mM MgCl2), 287.5 µl of 0.5% SDS buffer (25 mM Tris, 10 mM EDTA, 0.5% SDS, 100 mM NaCl) was added, and 12.5 µl of 20 mg/ml proteinase K was added, followed by a reaction at 37°C for 2 hours. 400 µl of phenol-chloroform-isoamyl alcohol was added, centrifugation was performed at room temperature at 13000 rpm after voltexing, the supernatant was transferred to a new tube, 40 µl of 3 M NaOAc was added, and 800 µl of 100% ethanol was added for inverting, followed by a reaction overnight at -20°C. After performing centrifugation at 4°C and 13000 rpm for 30 minutes, 800 µl of 70% ethanol was added and mixed to the pellet obtained by removing the supernatant, centrifugation was performed at 4°C and 13000 rpm for 10 minutes, and then the supernatant was discarded. The ethanol was dried for 5 minutes to leave only the HBV DNA pellets, and then the pellets were dissolved again in 15 µl of TE buffer (10 mM Tris, 1 mM EDTA). HBV DNA samples were loaded in 1% agarose gel, and electrophoresis was performed. It was then immersed in denature buffer (0.25 N NaOH, 1 M NaCl) for 30 minutes to denature dsDNA of HBV into ssDNA. The DNA in the gel was transferred to a Nylon membrane using a transfer buffer (0.4 M NaOH), the membrane was soaked with a 2X SSC buffer (sigma, cat# 85639) for neutralization, followed by drying in air. The membrane was immersed in a church buffer (10% BSA, 0.5 M EDTA, 1 M NaPi, 20% SDS), and the radioisotopes were hybridized using a Mega prime kit (GE healthcare, RPN1607). After washing three times with washing buffer (2X SSC, 0.1% SDS), measurement was performed using radioisotope measurement equipment, and a relative replication rate (%) to the negative control group (Mock) was calculated and shown.

SMILES	HBeAg absorbance level compared with Comparative Example 1 (LCA) and Comparative Example 2 (UDCA) (HBV [1])	HBeAg absorbance level compared with the negative control group (Mock) (HBV [1])	amount of HBeAg DNA detected compared to the negative control group (Mock) (HBV [2])	activity at 20 µM (HBV [2])
CC[C@@H](C)[C@H](NC(=O)CC[C@@H](C)[C@H]1CC[C@H]2[C@@H]3[C@@H](O)C[C@@H]4C[C@H](O)CC[C@]4(C)[C@H]3CC[C@]12C)C(=O)O [Example 2, (2S,3R)-2-((R)-4-((3R,5S,7S,8R,9S,10S,13R,14S,17R)-3,7-dihydroxy-10,13-dimethyl-hexadecahydro-1H-cyclopenta[a]phenanthren-17-yl)pentanamido)-3-methylpentanoic acid]	lower	relatively lower	relatively less amount	< 80%
CC(C)[C@H](NC(=O)CC[C@@H](C)[C@H]1CC[C@H]2[C@@H]3[C@@H](O)C[C@@H]4C[C@H](O)CC[C@]4(C)[C@H]3CC[C@]12C)C(=O)O [Example 3, (S)-2-((R)-4-((3R,5S,7S,8R,9S,10S,13R,14S,17R)-3,7-dihydroxy-10,13-dimethyl-hexadecahydro-1H-cyclopenta[a]phenanthren-17-yl)pentanamido)-3-methylbutanoic acid]	lower	relatively lower	relatively less amount	< 80%
CC[C@@H](C)[C@H](NC(=O)CC[C@@H](C)[C@H]1CC[C@H]2[C@@H]3CC[C@@H]4C[C@H](O)CC[C@]4(C)[C@H]3C[C@H](O)[C@]12C)C(=O)O [Example 10, (2S,3R)-2-((R)-4-((3R,5R,8R,9S,10S,12S,13R,14S,17R)-3,12-dihydroxy-10,13-dimethyl-hexadecahydro-1H-cyclopenta[a]phenanthren-17-yl)pentanamido)-3-methylpentanoic acid]	lower	relatively lower	relatively less amount	< 80%
CC(C)[C@H](NC(=O)CC[C@@H](C)[C@H]1CC[C@H]2[C@@H]3CC[C@@H]4C[C@H](O)CC[C@]4(C)[C@H]3CC[C@]12C)C(=O)N[C@@H](Cc1c[nH]c2ccccc12)C(=O)O [Example 25, (S)-2-((S)-2-((R)-4-((3R,5R,8R,9S,10S,13R,14S,17R)-3-hydroxy-10,13-dimethyl-hexadecahydro-1H-cyclopenta[a]phenanthren-17-yl)pentanamido)-3-methylbutanamido)-3-(1H-indol-3-yl)propanoic acid]	–	–	relatively less amount	–
CC(C)[C@H](NC(=O)CC[C@@H](C)[C@H]1CC[C@H]2[C@@H]3CC[C@@H]4C[C@H](O)CC[C@]4(C)[C@H]3CC[C@]12C)C(=O)O [Example 44, (S)-2-((R)-4-((3R,5R,8R,9S,10S,13R,14S,17R)-3-hydroxy-10,13-dimethyl-hexadecahydro-1H-cyclopenta[a]phenanthren-17-yl)pentanamido)-3-methylbutanoic acid]	lower	relatively lower	relatively less amount	< 80%
C[C@H](CCC(=O)N[C@@H](CO)C(=O)O)[C@H]1CC[C@H]2[C@@H]3CC[C@@H]4C[C@H](O)CC[C@]4(C)[C@H]3CC[C@]12C [Example 51, (S)-3-hydroxy-2-((R)-4-((3R,5R,8R,9S,10S,13R,14S,17R)-3-hydroxy-10,13-dimethyl-hexadecahydro-1H-cyclopenta[a]phenanthren-17-yl)pentanamido)propanoic acid]	–	relatively lower	–	–
C[C@H](CCC(=O)N[C@@H](Cc1ccc(O)cc1)C(=O)O)[C@H]1CC[C@H]2[C@@H]3CC[C@@H]4C[C@H](O)CC[C@]4(C)[C@H]3CC[C@]12C [Example 52, (S)-2-((R)-4-((3R,5R,8R,9S,10S,13R,14S,17R)-3-hydroxy-10,13-dimethyl-hexadecahydro-1H-cyclopenta[a]phenanthren-17-yl)pentanamido)-3-(4-hydroxyphenyl)propanoic acid]	–	–	relatively less amount	< 80%
C[C@H](CCC(=O)N[C@@H](CCC(=O)O)C(=O)O)[C@H]1CC[C@H]2[C@@H]3CC[C@@H]4C[C@H](O)CC[C@]4(C)[C@H]3CC[C@]12C [Example 55, (S)-2-((R)-4-((3R,5R,8R,9S,10S,13R,14S,17R)-3-hydroxy-10,13-dimethyl-hexadecahydro-1H-cyclopenta[a]phenanthren-17-yl)pentanamido)pentanedioic acid]	–	–	relatively less amount	–
